Assay results from patent US11077108B2, “Allosteric corticotropin-releasing factor receptor 1 (CRFR1) antagonists that decrease p-tau and improve cognition” (The Regents of the University of California, priority 2016, dated 2021).
Several values for one entry are separate records, joined by “and”; a condition that tells them apart may be missing. Identical values can stand only once. Each block holds one molecule with its values, some of them ahead of it.

Tests used:
[1] = Parallel Artificial Membrane Permeability Assay (PAMPA), kIAM on IAM.PC.DD.2 HPLC column; assay type: in vitro ADME; conditions: kIAM >1 indicative of good brain permeability
Experimental: Receptor Binding, Inhibition, and Parallel Artificial Membrane Permeability Assay (PAMPA).
Agilent 1260 infinity high-performance liquid chromatography system was used for analysis. The analytical column used was an IAM.PC.DD.2 column (4.6 mm i.d.×10 cm length, particle size […], pore size 300 Å) purchased from Regis Technologies (Morton Grove, Ill.). The mobile phase was a mixture of acetonitrile and water (35:65 v/v). The flow rate of the mobile phase was maintained at 1.0 ml/min at 25° C., and the ultraviolet absorption wavelength was set at 254 nm. Analysis was performed using 5 μL injection of the 2 mM stock solutions of the compounds. Compounds with kIAM values >1 in the PAMPA assay in our hands are indicative of good brain permeability.

[2] = biological target: T1, CRFR1 (Homo sapiens, UniProt P34998); test: CRF1 antagonist effect (inhibition of CRFR1 cAMP signaling upon CRF binding); assay type: cell-based; design: expressed in transfected cells; host or cells: COS-M6 (transiently transfected)
T1 sequence (P34998 24-415): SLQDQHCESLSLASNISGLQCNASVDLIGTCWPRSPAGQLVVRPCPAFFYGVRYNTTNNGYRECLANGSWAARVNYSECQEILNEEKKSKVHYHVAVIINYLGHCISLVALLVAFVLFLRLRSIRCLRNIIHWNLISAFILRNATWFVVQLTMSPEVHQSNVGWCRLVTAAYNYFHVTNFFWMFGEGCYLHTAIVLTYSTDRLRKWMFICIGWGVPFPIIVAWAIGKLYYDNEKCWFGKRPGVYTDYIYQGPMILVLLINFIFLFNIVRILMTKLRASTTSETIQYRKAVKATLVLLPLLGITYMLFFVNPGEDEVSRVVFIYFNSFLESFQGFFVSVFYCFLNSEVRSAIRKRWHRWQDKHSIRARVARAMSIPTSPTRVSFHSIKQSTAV

[3] = biological target: T1, CRFR1; test: Radioligand-receptor binding assay (agonist radioligand), CRF1 Kd; design: expressed in transfected cells; host or cells: HEK293 (permanently transfected), membranes; conditions: [125I]Tyr-sauvagine agonist radioligand
Experimental: Radioligand-Receptor Binding Assays (Agonist Radioligand).
Isolation of membranes from permanently transfected HEK293 cells expressing tCRFR1 or hCRFR1 and Scatchard analysis were performed with 50-100 ng protein as described (3) except that 50 pM [^125I]Tyr-sauvagine (NEN) was used as radioligand. [^125I]Tyr-Sauvagine was chosen as radioligand because of its equal high affinity for both CRF-R1 and CRF-R2. Nonspecific binding was always defined as residual [^125I]Tyr-sauvagine binding in the presence of 1 μM unlabeled ligand. The dissociation constant, KD, was calculated by the Ligand program (Munson et al. (1980) Anal. Biochem. 107: 220).

[4] = system: tau and ptau in SH-SY5Y cells; test: tau and p-tau levels in SH-SY5Y cells after compound treatment (AlphaLISA); assay type: cell-based, Human; conditions: 1 μM compound, 24 hours, no CRF
Experimental: Human neuroblastoma SH-SY5Y cells were treated for 24 hours with 1 μM compound, and then tau and ptau levels were determined from cell lysates using AlphaLISA (FIG. 7A). T41, as well as J32. […] Antalarmin (Ant), a known CRF1 antagonist, was used as a control.

[5] = In vivo pharmacokinetics, plasma and brain levels; conditions: adult mice
Experimental: FIG. 10 illustrates in vivo pharmacokinetics for T41. As shown in the top panel, after oral or subcutaneous (SQ) dosing of adult mice at 10 or 30 mg/kg. and collection of plasma and brain at 1, 2, 4, and 8 hours, the brain/plasma ratio was ˜3:2 for 30 mg/kg oral dosing and ˜2:1 for 30 mg/kg SQ injection. […] After oral dosing at 30 mg/kg, brain levels peaked at 1 hour at 328 ng/g.

[6] = system: tau and ptau in SH-SY5Y cells with CRF challenge; test: CRF challenge assay, tau and p-tau in SH-SY5Y cells; assay type: cell-based, Human; conditions: for ptau/tau ratio: 1 μM compound, three days
Experimental: […] On the next day, cells were treated with 100 nM CRF for 3 days. Next, cells were lysed with RIPA buffer complemented with Halt Cocktail Inhibitors, and freeze/thaw 3 times. […] Significance was not seen without CRF due to low N#, but is highly significant with CRF.

[7] = system: ptau and total tau; test: In vivo ptau, total tau and ptau/tau ratio, combined entorhinal cortex and hippocampus, CTS-treated GS mice; design: species or system mouse; conditions: T41 30 mkd oral + CTS, 21 days
[8] = system: human sAPPα; test: In vivo sAPPα, CTS-treated GS mice; design: species or system mouse; conditions: T41 30 mkd oral + CTS, 21 days
From the text: (§1) The purpose of this study was to determine behavioral and biochemical effects of T41 (shown below and in FIG. 2) and its ability to prevent corticosterone (CTS)-induced increases in ptau in the “Goldstein” (GS) prnp-huAPPwt-YFP mouse model. Corticosterone is known to increase CRF, which then should bind the receptor and trigger increases in ptau with chronic CTS injection. Biochemistry included total tau, ptau, and sAPPα from combined entorhinal cortex and hippocampus. Levels of sAPPβ, βCTF, and […] and -42 are believed to be too low to detect in this model.
The assay used to detect sAPPα recognizes human sAPPα, therefore the signal is expected to be undetectable in NTg mice. There was little or no difference between GS Veh and GS CTS mice (FIG. 13). […] Increases in sAPPα are correlated with improvement in cognition.

[9] = system: "Goldstein" (GS) prnp-huAPPwt-YFP mouse model; test: Novel Object Recognition (NOR) in corticosterone (CTS)-treated GS mice; assay type: in vivo; conditions: T41 30 mkd oral 1 hour before CTS 30 mkd SQ, 21 days
From the text: as §1

[10] = 1 μM compound and 100 nM CRF, 24 hours
[11] = hippocampus and entorhinal cortex

PAMPA KIAM [1]: 2.02
EC50 ([2]; values given in μM): > 2 µM
Kd [3]: ~0.03 µM
SMILES: CCC(COC)Oc1nc(C)nc(Nc2ccc(OC)cc2C)c1C (stereo not shown) [Compound T38, N-(4-methoxy-2-methylphenyl)-6-((1-methoxybutan-2-yl)oxy)-2,5-dimethylpyrimidin-4-amine]

CRF1 (agonist radioligand) Kd/(nM) [3]: DEAD
SMILES: CCC(COC)Oc1nc(C)nc(Nc2ccn(C)n2)c1C (stereo not shown) [Compound T54]

Kd [3]: 1 µM
SMILES: CCC(COC)Oc1nc(C)nc(Nc2ncc(C)cc2C)c1C (stereo not shown) [Compound T51]

PAMPA KIAM [1]: 3.32
Kd [3]: > 0.1 µM
SMILES: CCC(COC)Oc1nc(C)nc(Nc2ccc(F)cc2F)c1C (stereo not shown) [Compound T45]

PAMPA KIAM [1]: 2.00
Kd [3]: > 0.1 µM
SMILES: CCC(COC)Oc1nc(C)nc(Nc2c(F)cc(F)cc2F)c1C (stereo not shown) [Compound T47]

PAMPA KIAM [1]: 2.90
Kd [3]: > 0.1 µM
SMILES: CCC(COC)Oc1nc(C)nc(Nc2ccc(F)cc2C(F)(F)F)c1C (stereo not shown) [Compound T46]

Kd [3]: 0.04 µM
SMILES: CCC(COC)Oc1nc(C)nc(Nc2c(C)cc(F)cc2C)c1C (stereo not shown) [Compound T49]

PAMPA KIAM [1]: 3.27
SMILES: CCC(COC)Oc1nc(C)nc(Nc2ccc(F)cc2C)c1C (stereo not shown) [Compound T48]

peak brain level ([5]; oral dosing at 30 mg/kg): 328 ng/g
time of peak brain level ([5]; oral dosing at 30 mg/kg): 1 h
PAMPA KIAM [1]: 4.01
Ki ([2]; CRFR1 cAMP signaling upon CRF binding): 0.4 µM
inhibition at 1 µM ([2]; at 1 μM, upon CRF binding): 70%
EC50 ([2]; values in nM): 0.4 µM
Kd [3]: ~0.015 µM and 0.015 µM
SMILES: CCC(COC)Oc1nc(C)nc(Nc2c(C)cc(C)cc2C)c1C (stereo not shown) [Compound T41]
p-tau [4]: slightly decreased
p-tau/tau ratio [4]: significantly decreased
total tau [4]: slightly decreased
brain levels, comparison of doses and routes ([5]; 10 or 30 mg/kg, oral or SQ): higher at 30 than 10 mg/kg and higher with SQ injection than oral delivery
p-tau [6, 10]: lowers p-tau with high significance
p-tau/tau ratio [6, 10]: significant lowering
tau [6, 10]: does not lower tau
ptau/tau ratio ([6]; with 100 nM CRF): lowers the ptau/tau ratio
ptau/tau ratio ([6]; without CRF): lowers the ptau/tau ratio
ptau [7, 11]: no significant difference
total tau [7, 11]: overall had the highest value
ptau/tau ratio ([7]; versus CTS alone): T41 pre-treatment to prevent that increase
sAPPα [8]: trend toward an increase in sAPPα in T41-treated mice that was not statistically significant
novelty preference (NOR), post-study [9]: promising trend toward some increased novelty preference

PAMPA KIAM [1]: 4.68
Kd [3]: > 0.1 µM
SMILES: CCC(COC)Oc1nc(C)nc(OC(CC)COC)c1C (stereo not shown) [Compound T40]

PAMPA KIAM [1]: 2.31
Kd [3]: > 0.1 µM
SMILES: CCC(COC)Nc1nc(C)nc(Oc2ccc(OC)cc2C)c1C (stereo not shown) [Compound T36, 6-(4-methoxy-2-methylphenoxy)-N-(1-methoxybutan-2-yl)-2,5-dimethylpyrimidin-4-amine]

PAMPA KIAM [1]: 6.19
EC50 ([2]; values given in μM): > 10 µM
Kd [3]: 0.075 µM
SMILES: CCC(COC)Oc1nc(C)nc(Nc2ccc(Cl)cc2C)c1C (stereo not shown) [Compound T39]
p-tau [4]: slightly decreased
p-tau/tau ratio [4]: significantly decreased
total tau [4]: slightly decreased

CRF1 (agonist radioligand) Kd/(nM) [3]: DEAD
SMILES: CCC(COC)Oc1nc(C)nc(Nc2cnn(C)c2C)c1C (stereo not shown) [Compound T53]

PAMPA KIAM [1]: 5.79
Kd [3]: > 0.1 µM
SMILES: CCC(COC)Nc1nc(C)nc(Oc2ccc(Cl)cc2C)c1C (stereo not shown) [Compound T37, 6-(4-chloro-2-methylphenoxy)-N-(1-methoxybutan-2-yl)-2,5-dimethylpyrimidin-4-amine]

PAMPA KIAM [1]: 6.34
EC50 ([2]; values given in μM): > 2 µM
Kd [3]: ~0.03 µM
SMILES: CCC(COC)Nc1nc(C)nc(Oc2c(C)cc(C)cc2C)c1C (stereo not shown) [Compound T33]
p-tau [4]: slightly decreased
total tau [4]: slightly decreased
